From patent US20070286867A1, “Combination Therapy” (Fusion Antibodies Limited, priority 2003, published 2007)

What was measured:
Fas [1] = test: Western blot of Fas expression in HCT116 p53 wild-type cells; format: cell-based, human
Experimental: (§1) Western Blotting. Western blots were performed as previously described (6). The Fas/CD95, Bc1-2 and BID (Santa Cruz Biotechnology, Santa Cruz, Calif.), caspase 8 (Oncogene Research Products, Darmstadt, Germany), p53 (Santa Cruz Biotechnology), and PARP (Pharmingen, BD Biosciences, Oxford, England) mouse monoclonal antibodies were used in conjunction with a horseradish peroxidase (HRP)-conjugated sheep anti-mouse secondary antibody (Amersham, Little Chalfont, Buckinghamshire, England). FasL rabbit polyclonal antibody (Santa Cruz Biotechnology) was used in conjunction with an HRP-conjugated donkey anti-rabbit secondary antibody (Amersham). TS sheep monoclonal primary antibody (Rockland, Gilbertsville, Pa.) was used in conjunction with an HRP-conjugated donkey anti-sheep secondary antibody (Serotech, Oxford, England). Equal loading was assessed using a β-tubulin mouse monoclonal primary antibody (Sigma).

Fas [2] = test: Western blot of Fas expression in RKO cells; format: cell-based; conditions: 48 hours post-treatment; MTA data not shown
Experimental: as §1

HCT116p53^−/− cells = test: MTT cell viability assay in HCT116 p53 null cells; format: cell-based, human; conditions: range of drug concentrations 24 hours, then CH-11 200 ng/ml for 48 hours
Experimental: (§3) Cell Viability Assays. Cell viability was assessed by MTT (3-(4,5-dimethylthiazol-2-yl)-2,5-diphenyltetrazolium bromide, Sigma) assay (12). […] MTT (0.5 mg/ml) was then added to each well and the cells incubated at 37° C. for a further 3 hours. The culture medium was removed and formazan crystals reabsorbed in 200 μL DMSO. Cell viability was determined by reading the absorbance of each well at 570 nm using a 96-well microplate reader (Molecular Devices, Wokingham, England). […] Twenty microlitres (20 μL) MTT (5 mg/ml) was then added to each well and the cells incubated at 37° C. for a further 3 hours. The culture medium was removed and formazan crystals reabsorbed in 200 μL DMSO. Cell viability was determined by reading the absorbance of each well at 570 nm using an ELISA plate reader (Molecular Devices).
(§4) Statistical Analyses. The nature of the interaction between the chemotherapeutic drugs and CH-11 was determined by calculating the R index (RI), which was initially described by Kern and later modified by Romaneli (13, 14). […] Synergism is then defined as an RI of greater than unity. […] To further assess the statistical significance of the interactions, the inventors designed a univariate ANOVA analysis using the SPSS software package. This was an additive model based on the null hypothesis that there was no interaction between the drugs.

Fas/CD95 mRNA = test: Real-time PCR of Fas/CD95 mRNA in HCT116 p53 null cells; format: cell-based, human; conditions: IC60 72hrs doses, 24 and 48 hours
Experimental: Real-time PCR was performed using a DNA Engine Opticon 2 (MJ Research Incorporated). TheDyNAmo SYBR Green qPCR kit (Finnzymes) was used as the fluoresent dye specific for double-stranded DNA. PCR conditions consisted of an initial denaturation step of 95° C. for 10 minutes, followed by 39 cycles of 94° C. for 10 secs, 55° C. for 20 secs and 72° C. for 20 secs, with a final extension of 72° C. for 10 minutes. A melting curve was included at the end of each run to check the specificity of the amplified product. Experiments were performed in triplicate to ensure reproducibility of the technique. On completion of the run the PCR products were run put on a 2% ethidium bromide agarose gel to confirm that their size matched that of the expected amplicon. Primer sequences were as follows: Fas (Forward) […], Fas (Reverse) […], 18S (Forward) […], 18S (Reverse) […].

M7TS90-E6 cells = test: Flow cytometry sub-G1/G0 apoptotic fraction, M7TS90-E6; format: cell-based; conditions: 96 hours after drug treatment; RTX 100 nM, MTA 1 μM, 5-FU 10 μM
Experimental: (§2) Where flow cytometric analysis was employed in Examples 1 to 5, the following protocol was used. Cells were seeded at 1×10^5 per well of a 6-well tissue culture plate. […] DNA content of harvested cells was evaluated after propidium iodide staining of cells using the EPICS XL Flow Cytometer (Coulter, Miami, Fla.). Where flow cytometric analysis was employed in Examples 6 to 12, the following protocol was used. Cells were seeded at 1×10^5 per well of a 6-well tissue culture plate. […] DNA content of harvested cells was evaluated after propidium iodide staining of cells using the EPICS XL Flow Cytometer (Coulter). A FITC-conjugated monoclonal anti-human Fas antibody (DAKO) was used to determine cell surface expression of the receptor. Cells were collected and washed twice in PBS before incubating in the antibody (1/20 dilution) at 4° C. for 30 mins. A non-reactive FITC-conjugated mouse IgG1 antibody was used as a negative control for each sample. Following incubation the cells were washed twice with PBS containing 2% bovine serum albumin and fixed in 0.3 mL 4% paraformaldehyde. Samples were then analysed on the EPICS XL Flow Cytometer (Coulter).

procaspase 8, BID, PARP = test: Western blot of procaspase 8, BID and PARP in MCF-7 cells; format: cell-based; conditions: 5 μM 5-FU or 25 nM RTX 72 hours; CH-11 250 ng/ml 24 hours
Experimental: as §1

FasL = test: Western blot of FasL expression in MCF-7 cells; format: cell-based; conditions: IC60 doses, 72 hours
Experimental: as §1

Fas [3] = test: Western blot of Fas expression in MCF-7 cells; format: cell-based
Experimental: as §1

[4] = system: R175H p53 mutant cell line
Experimental: Plasmids containing the p53 mutations R175H and R248W were kindly provided by Prof. G. Lozano (MD Anderson Cancer Center, Houston). […] Cells were seeded on p90 dishes in Optimem, (Invitrogen) supplemented with 10% FCS, at a density of 1×10^5 cells/dish. Transfection was carried out the following day when the monolayer was approximately 70% confluent. Cells were cotransfected with 1 μg pIRESpuro3 DNA and 20 μg pC53NN p53 mutant DNA using Genejuice Transfection reagent (Novagen, CA, USA) according to the manufacturer's instructions. Stably transfected cells were selected over approximately 14 days in medium containing […] puromycin. […] The DO-1 antibody binds to an N-terminal epitope between amino acid residues 11 and 25.
Cell Viability Assays. Cell viability was assessed by MTT (3-(4,5-dimethylthiazol-2-yl)-2,5-diphenyltetrazolium bromide, Sigma) assay (12). […] Cell viability was determined by reading the absorbance of each well at 570 nm using a 96-well microplate reader (Molecular Devices, Wokingham, England). […]
Statistical Analyses. The nature of the interaction between the chemotherapeutic drugs and CH-11 was determined by calculating the R index (RI), which was initially described by Kern and later modified by Romaneli (13, 14). […]

Fas [5] = test: Western blot of Fas expression in H630 cells; format: cell-based; conditions: range of concentrations, 48 hours
Experimental: as §1

Fas receptor = test: Fas/CD95 cell surface expression in p53 mutant H630 cell line (Example 11); format: cell-based; conditions: 48 hours; 5-FU 5 μM, CPT-11 5 μM, Oxaliplatin 1 μM
Experimental: as §2

HCT116p53^+/+ cells = test: MTT cell viability assay in HCT116 p53 wild-type cells; format: cell-based, human; conditions: range of drug concentrations 24 hours, then CH-11 200 ng/ml for 48 hours
Experimental: as §3, §4

MCF-7 cells [6] = test: MTT cell viability assay in MCF-7 cells; format: cell-based
Experimental: as §3, §4

Fas/CD95 receptor = test: Flow cytometry of Fas/CD95 cell surface expression, HCT116 p53 wild-type; format: cell-based, human; conditions: 24 hours
Experimental: as §2

MCF-7 cells [7] = test: Flow cytometry of propidium iodide stained cells, sub-G1/G0 apoptotic fraction, MCF-7; format: cell-based; conditions: 5 μM 5-FU alone 96 hours, or 72 hours followed by 250 ng/ml CH-11 24 hours
Experimental: as §2

Fas mRNA = test: Northern blot of Fas mRNA in MCF-7 cells; format: cell-based; conditions: 48 hours, 5 μM 5-FU
Experimental: Northern blot analysis. Northern blots were performed as described previously using a cDNA probe complementary to the Fas coding region (7). Equal loading was assessed using a P-tubulin cDNA probe.

Fas [8] = test: Western blot of Fas expression in M7TS90-E6 cells; format: cell-based; conditions: 10 μM 5-FU, 100 nM RTX or 1 μM MTA
Experimental: as §1

## O=c1[nH]cc(F)c(=O)[nH]1 [5-FU, 5-fluorouracil]
Fas [1]; 5-FU 5 μM, CPT-11 5 μM, Oxaliplatin 1 μM for 48 hours
  induction of Fas/CD95 protein: significant induction
Fas [1]; after 48 hours
  up-regulation of Fas expression: > 10 fold
Fas [2]
  Fas expression: dramatic Fas up-regulation
HCT116p53^−/− cells
  interaction with CH-11 in MTT assay: only slight interaction
Fas/CD95 mRNA
  maximum induction of Fas mRNA: 2 fold
M7TS90-E6 cells
  induction of apoptosis by drug alone: little apoptosis
Procaspase 8, BID, PARP
  activation of caspase 8 and BID (processing of procaspase 8 and full-length BID), words: neither caspase 8, nor its substrate BID were activated
FasL
  FasL expression: unaffected
Fas [3]; 72 hours, IC60 dose (5 μM 5-FU, 25 nM RTX)
  Fas protein up-regulation: ~12 fold
Fas [3]; MTA data not shown, CH-11 alone 250 ng/ml, 5-FU alone 5 μM
  Fas expression: dramatic up-regulation
[4]
  synergistic cytotoxicity of combination with CH-11: synergistic cytotoxicity was demontsrated
Fas [5]
  Fas expression: not significantly altered
Fas receptor
  induction of the Fas receptor: Neither 5-FU nor Oxaliplatin treatment for 48 hours caused significant upregulation
HCT116p53^+/+ cells
  interaction with CH-11 in MTT assay: significant synergy
MCF-7 cells [6]; Homo sapiens, MCF7, read-out: decrease in cell viability compared to control
  cytotoxicity at 5 µM: ~60%
MCF-7 cells [6]; MCF-7
  IC60 dose: 5 µM
Fas/CD95 receptor
  induction of Fas/CD95 receptor cell surface expression: significantly induce expression
MCF-7 cells [7]
  induction of apoptosis (sub-G1/G0 fraction): ~2 fold
Fas mRNA
  Fas mRNA expression: up-regulated
Fas [8]
  Fas up-regulation: did not result in Fas up-regulation
